pIC50: −log10 of the molar value. Counter-ions that a name gives are not always drawn.
Key:
c-Cbl = c-Cbl (Homo sapiens (Human), UniProt P22681); assay: C-Cbl LCK Ub TR-FRET assay (c-cbl Lck HTRF); assay type: biochemical; conditions: for (fold-selectivity): C-cbl Lck HTRF IC50 relative to Cbl-b Lck HTRF IC50
Procedure, shortened: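 Signal is read once the detection mix has stood 20 min at ambient temperature. Curves are anchored by DMSO as maximum and by omission of LCK as minimum.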

Cbl-b = Cbl-b (Homo sapiens (Human), UniProt Q13191); assay: Cbl-b LCK Ub TR-FRET assay (Cbl-b Lck HTRF); assay type: biochemical
Sequence of Cbl-b (Q13191 40-426): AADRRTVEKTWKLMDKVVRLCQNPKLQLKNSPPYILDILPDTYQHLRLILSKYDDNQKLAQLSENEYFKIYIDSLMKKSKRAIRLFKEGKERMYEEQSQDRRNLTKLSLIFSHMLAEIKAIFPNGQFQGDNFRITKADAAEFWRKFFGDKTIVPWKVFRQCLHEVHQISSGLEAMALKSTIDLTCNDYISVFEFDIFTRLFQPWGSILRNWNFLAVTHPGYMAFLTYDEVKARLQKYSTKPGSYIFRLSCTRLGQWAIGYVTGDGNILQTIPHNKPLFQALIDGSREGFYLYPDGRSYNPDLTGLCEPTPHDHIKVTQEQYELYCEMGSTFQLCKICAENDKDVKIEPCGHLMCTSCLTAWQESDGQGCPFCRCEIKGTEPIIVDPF
Procedure, shortened: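 Biotin-Cbl-b preincubated with compound (10-point 3-fold series) 60 min, then His-LCK with 1 mM ATP (2× mixture) added for 90 min at room temperature. Ubiquitination detected by TR-FRET using HA-ubiquitin/UBE2D2 adduct, anti-HA-D2 and streptavidin-Eu; IC50 normalised to no-LCK and DMSO controls.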

Sequence of c-Cbl (P22681 47-435): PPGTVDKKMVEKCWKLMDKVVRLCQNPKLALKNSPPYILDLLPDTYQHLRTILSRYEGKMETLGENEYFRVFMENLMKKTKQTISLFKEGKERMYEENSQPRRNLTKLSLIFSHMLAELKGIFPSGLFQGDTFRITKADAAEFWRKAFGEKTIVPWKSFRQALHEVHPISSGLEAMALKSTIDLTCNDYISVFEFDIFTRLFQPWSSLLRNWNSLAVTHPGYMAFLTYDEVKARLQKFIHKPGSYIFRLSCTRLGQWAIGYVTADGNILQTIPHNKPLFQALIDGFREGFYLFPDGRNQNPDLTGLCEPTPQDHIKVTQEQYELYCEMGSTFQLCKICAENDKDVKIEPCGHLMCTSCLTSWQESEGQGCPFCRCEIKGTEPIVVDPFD

Row | Structure (SMILES) | pIC50 (c-Cbl) | (fold-selectivity) (c-Cbl) | pIC50 (Cbl-b)
1 | C[C@H]1CN(Cc2cc3c(c(C(F)(F)F)c2)CN(c2cccc(C4([C@@H](F)c5nncn5C)COC4)c2)C3=O)CCCO1 [Compound 118, 2-(3-(3-((R)-fluoro(4-methyl-4H-1,2,4-triazol-3-yl)methyl)oxetan-3-yl)phenyl)-6-(((S)-2-methyl-1,4-oxazepan-4-yl)methyl)-4-(trifluoromethyl)isoindolin-1-one] | 8.10 | 1.1x | 8.15
2 | CC(C)[C@H]1CN(C)CCN1Cc1cc2c(c(C(F)(F)F)c1)CN(c1cccc(C3([C@H](F)c4nncn4C4CC4)COC3)c1)C2=O [Compound 487, 2-(3-(3-((S)-(4-cyclopropyl-4H-1,2,4-triazol-3-yl)fluoromethyl)oxetan-3-yl)phenyl)-6-(((S)-2-isopropyl-4-methylpiperazin-1-yl)methyl)-4-(trifluoromethyl)isoindolin-1-one] | 5.57 | (1.5x) | 5.74
3 | Cn1cnnc1CC1(c2cccc(N3Cc4c(cc(CNC5(C)COC5)cc4C(F)(F)F)C3=O)c2)CC(F)(F)C1 [Compound 332, 2-(3-(3,3-difluoro-1-((4-methyl-4H-1,2,4-triazol-3-yl)methyl)cyclobutyl)phenyl)-6-(((3-methyloxetan-3-yl)amino)methyl)-4-(trifluoromethyl)isoindolin-1-one] | 7.47 | (1.2x) | 7.55
4 | CC(=O)NCCCCNc1cc(C2(Cc3nncn3C)CCC2)cc(N2Cc3c(cc(CNC4(C)CCC4)cc3C(F)(F)F)C2=O)n1 [Compound 314, N-(4-((4-(1-((4-methyl-4H-1,2,4-triazol-3-yl)methyl)cyclobutyl)-6-(6-(((1-methylcyclobutyl)amino)methyl)-1-oxo-4-(trifluoromethyl)isoindolin-2-yl)pyridin-2-yl)amino)butyl)acetamide formate] | 7.51 | – | 7.57
5 | CC(C)[C@H]1CN(C2COC2)CCN1Cc1cc2c(c(C(F)(F)F)c1)CN(c1cccc(C3([C@@H](F)c4nncn4C)COC3)c1)C2=O [Compound 200, 2-(3-(3-((R)-fluoro(4-methyl-4H-1,2,4-triazol-3-yl)methyl)oxetan-3-yl)phenyl)-6-(((S)-2-isopropyl-4-(oxetan-3-yl)piperazin-1-yl)methyl)-4-(trifluoromethyl)isoindolin-1-one] | 7.41 | 1.5x | 7.57
6 | CCCNCc1cc2c(c(C(F)(F)F)c1)CN(c1cc(NCC)cc(C3(Cc4nncn4C)CCC3)c1)C2=O [Compound 458, 2-(3-(ethylamino)-5-(1-((4-methyl-4H-1,2,4-triazol-3-yl)methyl)cyclobutyl)phenyl)-6-((propylamino)methyl)-4-(trifluoromethyl)isoindolin-1-one] | 7.82 | (0.66x) | 7.64
7 | Cn1cnnc1[C@H](F)C1(c2cccc(N3Cc4c(cc(CN5CC(C)(CCl)C5)cc4C(F)(F)F)C3=O)c2)COC1 [Compound 103, (R)-6-((3-(chloromethyl)-3-methylazetidin-1-yl)methyl)-2-(3-(3-(fluoro(4-methyl-4H-1,2,4-triazol-3-yl)methyl)oxetan-3-yl)phenyl)-4-(trifluoromethyl)isoindolin-1-one] | 7.66 | 1.5x | 7.82
8 | Cn1cnnc1C[C@]1(c2cccc(N3Cc4c(cc(CNC5(C)CCC5)cc4C(F)(F)F)C3=O)c2)C[C@@H](C#N)C1 [Compound 468, (1s,3s)-3-((4-methyl-4H-1,2,4-triazol-3-yl)methyl)-3-(3-(6-(((1 - methylcyclobutyl)amino)methyl)-1-oxo-4-(trifluoromethyl)isoindolin-2-yl)phenyl)cyclobutanecarbonitrile] | 7.82 | (1.0x) | 7.82
